13 compounds from patent US12344597B2, “Alkoxy-substituted pyridinyl derivatives as LPA1 receptor antagonists and their use in the treatment of fibrosis” (IDORSIA PHARMACEUTICALS LTD, priority 2018, dated 2025) can be followed below.

For the test, the target named is human LPA1 receptor (Homo sapiens (Human), UniProt Q92633). Kind of test: Beta-arrestin recruitment assay to determine IC50 values for human LPAR1. It counts as cell-based. The conditions noted are these: antagonist mode, Tango EDG2-bla U2OS cells, LPA 18:1 500 nM final. Put shortly: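 Antagonist IC50 = concentration giving 50% inhibition of maximal LPA response. Read-out is beta-lactamase reporter activity after arrestin-protease recruitment in U2OS cells bearing LPA1-TEV-Gal4-VP16 construct; cells pre-incubated 20 h, 37 °C, 5% CO2.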
Sequence of human LPA1 receptor (Q92633 whole entry, the tested form may be a part): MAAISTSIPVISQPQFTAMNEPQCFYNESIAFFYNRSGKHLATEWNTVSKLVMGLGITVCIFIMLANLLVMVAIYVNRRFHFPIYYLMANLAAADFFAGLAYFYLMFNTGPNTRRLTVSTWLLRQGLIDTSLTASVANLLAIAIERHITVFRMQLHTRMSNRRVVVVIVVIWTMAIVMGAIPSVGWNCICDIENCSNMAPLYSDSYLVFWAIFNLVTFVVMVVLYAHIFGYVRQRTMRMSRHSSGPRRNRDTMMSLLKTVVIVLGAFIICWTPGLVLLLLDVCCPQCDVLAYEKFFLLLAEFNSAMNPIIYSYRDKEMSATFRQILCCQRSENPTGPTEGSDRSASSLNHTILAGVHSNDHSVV
Background: Activated receptors often draw arrestin, which recruitment assays turn into a signal.
The term IC50 denotes the concentration that gives 50% inhibition. Low values mean greater potency in that assay, high ones weaker potency in that assay. `Cc1ccc(NC(=O)C2(c3ccccc3C(C)C)CN(C(=O)CNC(N)=O)C2)c(OC(F)F)n1` [Ex 12-10, 1-(carbamoylglycyl)-N-(2-(difluoromethoxy)-6-methylpyridin-3-yl)-3-(2-isopropylphenyl)azetidine-3-carboxamide] registered an IC50 of 155 nM.
Regarding `COC(=O)CCS(=O)(=O)N1CCC(C(=O)Nc2ccc(C)nc2OC(F)F)(c2ccccc2C(C)C)CC1` [Ex 13-6, methyl 3-((4-((2-(difluoromethoxy)-6-methylpyridin-3-yl)carbamoyl)-4-(2-isopropylphenyl)piperidin-1-yl)sulfonyl)propanoate], the IC50 was 26 nM.
In turn, `CC(C)c1ccccc1C1(C(=O)Nc2ncc(Cl)cc2OC(F)F)CNC1` [Ex 72, N-(5-chloro-3-(difluoromethoxy)pyridin-2-yl)-3-(2-isopropylphenyl)azetidine-3-carboxamide] yielded an IC50 of 15 nM.
In the case of `COc1cc(Br)cnc1NC(=O)C1(c2ccccc2C(C)C)CN(C(=O)CC(C)(C)C(=O)O)C1` [Ex 79-5, 4-(3-((5-bromo-3-methoxypyridin-2-yl)carbamoyl)-3-(2-isopropylphenyl)azetidin-1-yl)-2,2-dimethyl-4-oxobutanoic acid] it was 104 nM.
In the case of `COC(=O)c1ccc(N2CC(C(=O)Nc3ccc(C)nc3OC(F)F)(c3ccccc3C(C)C)C2)nc1` [Ex 18-1, Methyl 6-(3-((2-(difluoromethoxy)-6-methylpyridin-3-yl)carbamoyl)-3-(2-isopropylphenyl)azetidin-1-yl)nicotinate] it was 16 nM; in that of `CNS(=O)(=O)CC(=O)N1CC(C(=O)Nc2ccc(C)nc2OC(F)F)(c2ccccc2C(C)C)C1` [Ex 12-6, N-(2-(difluoromethoxy)-6-methylpyridin-3-yl)-3-(2-isopropylphenyl)-1-(2-(N-methylsulfamoyl)acetyl)azetidine-3-carboxamide], 13 nM; in that of `CCCc1ccccc1C1(C(=O)Nc2ccc(C)nc2OC(F)F)CNC1` [Ex 29, N-(2-(difluoromethoxy)-6-methylpyridin-3-yl)-3-(2-propylphenyl)azetidine-3-carboxamide], 420 nM.
In turn, `Cc1ccc(NC(=O)C2(c3ccccc3C(C)C)CN(C(=O)C[C@@H]3COCCN3)C2)c(OC(F)F)n1` [Ex 12-45, (R)-N-(2-(difluoromethoxy)-6-methylpyridin-3-yl)-3-(2-isopropylphenyl)-1-(2-(morpholin-3-yl)acetyl)azetidine-3-carboxamide] showed an IC50 of 61 nM. This IC50 is about 6.9-fold lower than that of the compound before.
In the case of `CC(=O)N1CC(C(=O)Nc2ccc(C)nc2OC(F)F)(c2ccccc2C(C)C)C1` [Ex 12-2, 1-acetyl-N-(2-(difluoromethoxy)-6-methylpyridin-3-yl)-3-(2-isopropylphenyl)azetidine-3-carboxamide] it was 10 nM; in that of `COCCNCC(=O)N1CC(C(=O)Nc2ccc(C)nc2OC(F)F)(c2ccccc2C(C)C)C1` [Ex 12-54, N-(2-(difluoromethoxy)-6-methylpyridin-3-yl)-3-(2-isopropylphenyl)-1-((2-methoxyethyl)glycyl)azetidine-3-carboxamide], 10 nM.
In the case of `Cc1ccc(NC(=O)C2(c3ccccc3C(C)C)CN(C(=O)OCC(=O)O)C2)c(OC(F)F)n1` [Ex 14-1, 2-((3-((2-(difluoromethoxy)-6-methylpyridin-3-yl)carbamoyl)-3-(2-isopropylphenyl)azetidine-1-carbonyl)oxy)acetic acid] it was 12 nM; in that of `Cc1ccc(NC(=O)C2(c3ccccc3C(C)C)CN(C(=O)CS(N)(=O)=O)C2)c(OC(F)F)n1` [Ex 12-4, N-(2-(difluoromethoxy)-6-methylpyridin-3-yl)-3-(2-isopropylphenyl)-1-(2-sulfamoylacetyl)azetidine-3-carboxamide], 20 nM.
With `Cc1ccc(NC(=O)C2(c3ccccc3C(C)C)CN(C(=O)COCCOCC(=O)OCc3ccccc3)C2)c(OC(F)F)n1` [Ex 12-106, benzyl 2-(2-(2-(3-((2-(difluoromethoxy)-6-methylpyridin-3-yl)carbamoyl)-3-(2-isopropylphenyl)azetidin-1-yl)-2-oxoethoxy)ethoxy)acetate], the IC50 is 59 nM.
